Measured values from PubChem BioAssay (NCI).
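These data come from cells grown in 96-well plates and exposed to compound for 48 hours at five concentrations. Definition used: TGI = concentration required for complete inhibition of growth.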

Tested on: HCT-116 colon
Experiment: growth of human tumour cells (NCI), 48 h

| SMILES | TGI [µM] |
| --- | --- |
| CC(=O)NNc1nc(C)c(C(/C=C/c2cccc([N+](=O)[O-])c2)=N/NC(=S)NN)s1 | > 100 |
| CCCN(CCCCC(NC(C)=O)C(=O)NCc1ccccc1)C(=O)N(CCCl)N=O (stereo not given) | > 100 |
| O=C(CNc1ccc(Cl)cc1)Nn1c(-c2ccccc2)nc2ccccc2c1=O | 4.65 |
| NC(N)=N/N=C/c1c(Cl)nc2sccn12 | 31.7 |
| O=C(Nc1ccc2nc(-c3ccccc3)cn2c1)Oc1ccccc1 | > 100 |
| COc1cc(C2c3cc4c(cc3[C@H](OCCN(C)C)[C@@H]3COC(=O)C23)OCO4)cc(OC)c1O (stereo not given in full) | 7.18 |
| Cc1cccc2c(N)c3cccc(C(=O)NCCCNCCN)c3nc12 | 25.9 |
| COC12C=CC(CC1)C(C)(C)C2=O (stereo not given) | > 100 |
| NS(=O)(=O)c1nnc(NC(=O)c2ccccc2)s1 | > 100 |
| CC(=O)OCC1OC(N2C(c3ccccc3)=CC(c3ccccc3)C(C#N)=C2S)C(OC(C)=O)C(OC(C)=O)C1OC(C)=O (stereo not given) | > 65.6 |
| CCOC(=O)/C(O)=C(/C=NC(=S)c1ccncc1)C(=O)OCC | > 100 |

Tested on: K-562 leukemia
Experiment: growth of human tumour cells (NCI), 48 h

| SMILES | TGI [µM] |
| --- | --- |
| CC(=O)NNc1nc(C)c(C(/C=C/c2cccc([N+](=O)[O-])c2)=N/NC(=S)NN)s1 | > 100 |
| CCCN(CCCCC(NC(C)=O)C(=O)NCc1ccccc1)C(=O)N(CCCl)N=O (stereo not given) | > 100 |
| O=C(CNc1ccc(Cl)cc1)Nn1c(-c2ccccc2)nc2ccccc2c1=O | 14.3 |
| NC(N)=N/N=C/c1c(Cl)nc2sccn12 | 87.4 |
| O=C(Nc1ccc2nc(-c3ccccc3)cn2c1)Oc1ccccc1 | > 100 |
| COc1cc(C2c3cc4c(cc3[C@H](OCCN(C)C)[C@@H]3COC(=O)C23)OCO4)cc(OC)c1O (stereo not given in full) | 15.9 |
| Cc1cccc2c(N)c3cccc(C(=O)NCCCNCCN)c3nc12 | > 100 |
| COC12C=CC(CC1)C(C)(C)C2=O (stereo not given) | > 100 |
| NS(=O)(=O)c1nnc(NC(=O)c2ccccc2)s1 | > 100 |
| CC(=O)OCC1OC(N2C(c3ccccc3)=CC(c3ccccc3)C(C#N)=C2S)C(OC(C)=O)C(OC(C)=O)C1OC(C)=O (stereo not given) | > 100 |
| CCOC(=O)/C(O)=C(/C=NC(=S)c1ccncc1)C(=O)OCC | > 100 |

Tested on: CAKI-1 renal
Experiment: growth of human tumour cells (NCI), 48 h

| SMILES | TGI [µM] |
| --- | --- |
| CC(=O)NNc1nc(C)c(C(/C=C/c2cccc([N+](=O)[O-])c2)=N/NC(=S)NN)s1 | > 100 |
| CCCN(CCCCC(NC(C)=O)C(=O)NCc1ccccc1)C(=O)N(CCCl)N=O (stereo not given) | > 100 |
| O=C(CNc1ccc(Cl)cc1)Nn1c(-c2ccccc2)nc2ccccc2c1=O | 23.6 |
| NC(N)=N/N=C/c1c(Cl)nc2sccn12 | > 100 |
| O=C(Nc1ccc2nc(-c3ccccc3)cn2c1)Oc1ccccc1 | > 100 |
| COc1cc(C2c3cc4c(cc3[C@H](OCCN(C)C)[C@@H]3COC(=O)C23)OCO4)cc(OC)c1O (stereo not given in full) | 1.07 |
| Cc1cccc2c(N)c3cccc(C(=O)NCCCNCCN)c3nc12 | 26.3 |
| COC12C=CC(CC1)C(C)(C)C2=O (stereo not given) | > 100 |
| NS(=O)(=O)c1nnc(NC(=O)c2ccccc2)s1 | > 100 |
| CC(=O)OCC1OC(N2C(c3ccccc3)=CC(c3ccccc3)C(C#N)=C2S)C(OC(C)=O)C(OC(C)=O)C1OC(C)=O (stereo not given) | 7.73 |
| CCOC(=O)/C(O)=C(/C=NC(=S)c1ccncc1)C(=O)OCC | > 100 |

Tested on: SK-MEL-28 melanoma
Experiment: growth of human tumour cells (NCI), 48 h

| SMILES | TGI [µM] |
| --- | --- |
| CC(=O)NNc1nc(C)c(C(/C=C/c2cccc([N+](=O)[O-])c2)=N/NC(=S)NN)s1 | > 100 |
| CCCN(CCCCC(NC(C)=O)C(=O)NCc1ccccc1)C(=O)N(CCCl)N=O (stereo not given) | > 100 |
| O=C(CNc1ccc(Cl)cc1)Nn1c(-c2ccccc2)nc2ccccc2c1=O | 19.8 |
| NC(N)=N/N=C/c1c(Cl)nc2sccn12 | > 100 |
| O=C(Nc1ccc2nc(-c3ccccc3)cn2c1)Oc1ccccc1 | > 100 |
| COc1cc(C2c3cc4c(cc3[C@H](OCCN(C)C)[C@@H]3COC(=O)C23)OCO4)cc(OC)c1O (stereo not given in full) | 4.51 |
| Cc1cccc2c(N)c3cccc(C(=O)NCCCNCCN)c3nc12 | 29.4 |
| COC12C=CC(CC1)C(C)(C)C2=O (stereo not given) | > 100 |
| NS(=O)(=O)c1nnc(NC(=O)c2ccccc2)s1 | > 100 |
| CC(=O)OCC1OC(N2C(c3ccccc3)=CC(c3ccccc3)C(C#N)=C2S)C(OC(C)=O)C(OC(C)=O)C1OC(C)=O (stereo not given) | > 100 |
| CCOC(=O)/C(O)=C(/C=NC(=S)c1ccncc1)C(=O)OCC | > 100 |

Tested on: BT-549 breast
Experiment: growth of human tumour cells (NCI), 48 h

| SMILES | TGI [µM] |
| --- | --- |
| CC(=O)NNc1nc(C)c(C(/C=C/c2cccc([N+](=O)[O-])c2)=N/NC(=S)NN)s1 | > 100 |
| CCCN(CCCCC(NC(C)=O)C(=O)NCc1ccccc1)C(=O)N(CCCl)N=O (stereo not given) | > 100 |
| O=C(CNc1ccc(Cl)cc1)Nn1c(-c2ccccc2)nc2ccccc2c1=O | 6.29 |
| NC(N)=N/N=C/c1c(Cl)nc2sccn12 | > 100 |
| O=C(Nc1ccc2nc(-c3ccccc3)cn2c1)Oc1ccccc1 | > 100 |
| COc1cc(C2c3cc4c(cc3[C@H](OCCN(C)C)[C@@H]3COC(=O)C23)OCO4)cc(OC)c1O (stereo not given in full) | 2.32 |
